Reference: PMC8745314, “Novel Tetrazole-Based Antimicrobial Agents Targeting Clinical Bacteria Strains: Exploring the Inhibition of Staphylococcus aureus DNA Topoisomerase IV and Gyrase” (International Journal of Molecular Sciences, 2021)
≈ marks a conversion by molar mass, not a printed value.

Columns and labels:
[1] = target: S. aureus topoisomerase IV (Staphylococcus aureus, UniProt P0C1S7+P0C1U9); experiment: Topoisomerase IV decatenation assay; type: biochemical; details: decatenation of kinetoplast DNA, read-out: IC50 ± S.E.M. for Topoisomerase IV (converted)
Experimental: Description related to conducted biological studies including cell culture, suitable conditions, and methodology was presented in our previous paper.
Figure 1 The effect of tested compounds on S. aureus topoisomerase IV activity. Decreasing amounts of 1, 2, or 3 were incubated with 200 ng kinetoplast DNA and run-on agarose gel. Lane: 1–5: compound 3 at concentrations 64, 32, 8, 2, 0.5 μg/mL, respectively. Lane: 6–10: compound 2 at concentrations 64, 32, 8, 2, 0.5 μg/mL, respectively. Lane: 11–15: compound 1 at concentrations 64, 32, 8, 2, 0.5 μg/mL, respectively.

S. aureus ATCC 6538 = experiment: MIC broth microdilution, standard strain; type: cell-based; details: Staphylococcus aureus, ATCC6538; S. aureus ATCC 6538, standard strain, 19 h at 35 °C; read-out: minimal inhibitory concentration (MIC)
Experimental: (§1) All synthesized compounds were tested in vitro against a set of bacteria, including representative standard Gram-positive and Gram-negative rods. Compounds were screened for their minimal inhibitory concentrations (MICs). […] The antimicrobial assays were conducted using reference strains of bacteria derived from international microbe collections: American Type Culture Collection (ATCC) and National Collection of Type Culture (NCTC). The following standard strains of bacteria were used: Gram-positive-Staphylococcus aureus NCTC 4163, Staphylococcus aureus ATCC 25923, Staphylococcus aureus ATCC 6538, Staphylococcus aureus ATCC 29213, Staphylococcus epidermidis ATCC 12228, Staphylococcus epidermidis ATCC 35984, Gram-negative: Escherichia coli ATCC 25922, Pseudomonas aeruginosa ATCC 15442. Clinical strains of bacteria used in this study: Gram-positive: Staphylococcus epidermidis 5253, Staphylococcus epidermidis 4243, Staphylococcus aureus […], Staphylococcus aureus […] and Gram-negative: Escherichia coli 520, Escherichia coli 600, Klebsiella pneumoniae 510 and Pseudomonas aeruginosa 659 were obtained from the collection of the Department of Pharmaceutical Microbiology, Medical University of Warsaw, Poland and they were isolated from different biological materials taken from the patients hospitalized in the Warsaw Medical University hospitals. […] MIC was determined by the two-fold serial broth microdilution method in 96-well microtitration plates using Mueller-Hinton II broth medium (Becton Dickinson, Franklin Lakes, NJ, USA). The final inoculum of all studied bacteria was 10^6 CFU/mL (colony forming unit per milliliter). The stock solution of tested compounds was prepared in dimethyl sulfoxide (DMSO) and diluted to a maximum of 1% of solvent content with a sterile medium.

S. aureus ATCC 29213 = experiment: MIC broth microdilution, standard strain; type: cell-based; details: Staphylococcus aureus, ATCC29213; S. aureus ATCC 29213, standard strain, 19 h at 35 °C; read-out: minimal inhibitory concentration (MIC)
Experimental: as §1

[2] = test system: S. epidermidis ATCC 35984; experiment: MIC broth microdilution, standard strain; type: cell-based; details: Staphylococcus epidermidis, ATCC35984; S. epidermidis ATCC 35984, standard strain, 19 h at 35 °C; read-out: minimal inhibitory concentration (MIC)
Experimental: as §1

[3] = test system: S. epidermidis ATCC 12228; experiment: MIC broth microdilution, standard strain; type: cell-based; details: Staphylococcus epidermidis, ATCC12228; S. epidermidis ATCC 12228, standard strain, 19 h at 35 °C; read-out: minimal inhibitory concentration (MIC)
Experimental: as §1

P. aeruginosa ATCC 15442 = experiment: MIC broth microdilution, standard strain; type: cell-based; details: Pseudomonas aeruginosa, ATCC15442; P. aeruginosa ATCC 15442, standard strain, 19 h at 35 °C; read-out: minimal inhibitory concentration (MIC)
Experimental: (§2) All synthesized compounds were tested in vitro against a set of bacteria, including representative standard Gram-positive and Gram-negative rods. Compounds were screened for their minimal inhibitory concentrations (MICs). […] These three compounds were also found to be good inhibitors of the growth of Gram-negative rods: […] The antimicrobial assays were conducted using reference strains of bacteria derived from international microbe collections: American Type Culture Collection (ATCC) and National Collection of Type Culture (NCTC). The following standard strains of bacteria were used: Gram-positive-Staphylococcus aureus NCTC 4163, Staphylococcus aureus ATCC 25923, Staphylococcus aureus ATCC 6538, Staphylococcus aureus ATCC 29213, Staphylococcus epidermidis ATCC 12228, Staphylococcus epidermidis ATCC 35984, Gram-negative: Escherichia coli ATCC 25922, Pseudomonas aeruginosa ATCC 15442. Clinical strains of bacteria used in this study: Gram-positive: Staphylococcus epidermidis 5253, Staphylococcus epidermidis 4243, Staphylococcus aureus […], Staphylococcus aureus […] and Gram-negative: Escherichia coli 520, Escherichia coli 600, Klebsiella pneumoniae 510 and Pseudomonas aeruginosa 659 were obtained from the collection of the Department of Pharmaceutical Microbiology, Medical University of Warsaw, Poland and they were isolated from different biological materials taken from the patients hospitalized in the Warsaw Medical University hospitals. Antimicrobial activity was examined by the minimal inhibitory concentration (MIC) method under standard procedures provided by CLSI with some modifications. MIC was determined by the two-fold serial broth microdilution method in 96-well microtitration plates using Mueller-Hinton II broth medium (Becton Dickinson, Franklin Lakes, NJ, USA). The final inoculum of all studied bacteria was 10^6 CFU/mL (colony forming unit per milliliter). The stock solution of tested compounds was prepared in dimethyl sulfoxide (DMSO) and diluted to a maximum of 1% of solvent content with a sterile medium.

S. aureus ATCC 25923 = experiment: MIC broth microdilution, standard strain; type: cell-based; details: Staphylococcus aureus, ATCC25923; S. aureus ATCC 25923, standard strain, 19 h at 35 °C; read-out: minimal inhibitory concentration (MIC)
Experimental: as §2

E. coli ATCC 25922 = experiment: MIC broth microdilution, standard strain; type: cell-based; details: Escherichia coli, ATCC25922; E. coli ATCC 25922, standard strain, 19 h at 35 °C; read-out: minimal inhibitory concentration (MIC)
Experimental: as §2

S. aureus NCTC 4163 = experiment: MIC broth microdilution, standard strain; type: cell-based; details: Staphylococcus aureus, NCTC4163; S. aureus NCTC 4163, standard strain, 19 h at 35 °C; read-out: minimal inhibitory concentration (MIC)
Experimental: as §2

Row | MIC (S. aureus ATCC 6538) | MIC (S. aureus ATCC 29213) | MIC [2] | MIC [3] | MIC (P. aeruginosa ATCC 15442) | MIC (S. aureus ATCC 25923) | MIC (E. coli ATCC 25922) | MIC (S. aureus NCTC 4163) | SMILES | IC50 [1]
1 | 128 µg/mL (≈ 326 µM) | 128 µg/mL (≈ 326 µM) | 128 µg/mL (≈ 326 µM) | 256 µg/mL (≈ 652 µM) | > 256 µg/mL | 128 µg/mL (≈ 326 µM) | > 256 µg/mL | 128 µg/mL (≈ 326 µM) | CC(C)C12C=CC(C)(CC1)C1C(=O)N(Nc3nnnn3-c3ccccc3)C(=O)C12 (centres unmarked) [Compound 11, 4-Isopropyl-7-methyl-2-((1-phenyl-1H-tetrazol-5-yl)amino)-3a,4,7,7a-tetrahydro-1H-4,7-ethanoisoindole-1,3(2H)-dione] | 
2 | 32 µg/mL (≈ 75 µM) | 64 µg/mL (≈ 150 µM) | 32 µg/mL (≈ 75 µM) | 128 µg/mL (≈ 300 µM) | > 256 µg/mL | 32 µg/mL (≈ 75 µM) | 128 µg/mL (≈ 300 µM) | 32 µg/mL (≈ 75 µM) | CC(C)C12C=CC(C)(CC1)C1C(=O)N(Nc3nnnn3-c3ccccc3Cl)C(=O)C12 (centres unmarked) [Compound 7, 2-((1-(2-Chlorophenyl)-1H-tetrazol-5-yl)amino)-4-isopropyl-7-methyl-3a,4,7,7a-tetrahydro-1H-4,7-ethanoisoindole-1,3(2H)-dione] | 

The next lines start with the molecule.

Row | SMILES | MIC (S. aureus ATCC 6538) | MIC (S. aureus ATCC 29213) | MIC [2] | MIC [3] | MIC (P. aeruginosa ATCC 15442) | MIC (S. aureus ATCC 25923) | MIC (E. coli ATCC 25922) | MIC (S. aureus NCTC 4163) | IC50 [1]
3 | COc1c(N2C[C@@H]3CCCN[C@@H]3C2)c(F)cc2c(=O)c(C(=O)O)cn(C3CC3)c12 [Moxifloxacin, reference compound] |  |  |  |  |  |  |  |  | 2240 nM
4 | CC1=C(C)C2(C)CC1(C)C1C(=O)N(Nc3nnnn3-c3ccc(C)cc3)C(=O)C12 (centres unmarked) [Compound 5, 4,5,6,7-Tetramethyl-2-((1-(p-tolyl)-1H-tetrazol-5-yl)amino)-3a,4,7,7a-tetrahydro-1H-4,7-methanoisoindole-1,3(2H)-dione] | > 256 µg/mL | > 256 µg/mL | > 256 µg/mL | > 256 µg/mL | > 256 µg/mL | > 256 µg/mL | > 256 µg/mL | > 256 µg/mL | 
5 | O=C(O)c1cn(C2CC2)c2cc(N3CCNCC3)c(F)cc2c1=O [Ciprofloxacin, reference compound] |  |  |  |  | 0.125 µg/mL (≈ 0.377 µM) | 0.5 µg/mL (≈ 1.51 µM) | 0.015 µg/mL (≈ 0.0453 µM) | 0.125 µg/mL (≈ 0.377 µM) | 
